# Results reported in ChEMBL document CHEMBL1122957, “Artificial siderophores. 2. Syntheses of trihydroxamate analogues of rhodotorulic acid and their biological iron transport capabilities in Escherichia coli” (1985).
# Key:
# Format in all cases: functional, organism-based
# Escherichia coli [1] = experiment: The ability of the artificial siderophores to support the growth of Escherichia coli strain RWB7 was evaluated at the concentration of 25 uM; No growth around the disc
# Escherichia coli [2] = experiment: The ability of the artificial siderophores to support the growth of Escherichia coli strain RWB7 was evaluated at the concentration of 50 and 500 uM; No growth around the disc
# Escherichia coli [3] = experiment: The ability of the artificial siderophores to support the growth of Escherichia coli strain AN 193 was evaluated at the concentration of 50 and 500 uM; No growth around the disc
# Escherichia coli [4] = experiment: The ability of the artificial siderophores to support the growth of Escherichia coli strain BN 3300 was evaluated at the concentration of 50 and 500 uM; No growth around the disc
# Escherichia coli [5] = experiment: The ability of the artificial siderophores to support the growth of Escherichia coli strain BN 3306 was evaluated at the concentration of 50 and 500 uM; No growth around the disc
# Escherichia coli [6] = experiment: The ability of the artificial siderophores to support the growth of Escherichia coli strain RW 193 was evaluated at the concentration of 50 and 500 uM; No growth around the disc
# Escherichia coli [7] = experiment: The ability of the artificial siderophores to support the growth of Escherichia coli strain RWB7 was evaluated at the concentration of 50 uM; No growth around the disc
# Escherichia coli [8] = experiment: The ability of the artificial siderophores to support the growth of Escherichia coli strain AN 193 was evaluated at the concentration of 50 uM; No growth around the disc
# Escherichia coli [9] = experiment: The ability of the artificial siderophores to support the growth of Escherichia coli strain BN 3300 was evaluated at the concentration of 50 uM; No growth around the disc
# Escherichia coli [10] = experiment: The ability of the artificial siderophores to support the growth of Escherichia coli strain BN 3306 was evaluated at the concentration of 50 uM; No growth around the disc
compound,measurement,setting,value
O=C(N[C@H]1COC(=O)[C@@H](NC(=O)c2cccc(O)c2O)COC(=O)[C@@H](NC(=O)c2cccc(O)c2O)COC1=O)c1cccc(O)c1O,Inhibitory diameter,Escherichia coli [1],Not toxic
CC(=O)N(O)CCCn1c(=O)n(CCCN(O)C(C)=O)c(=O)n(CCCN(O)C(C)=O)c1=O,Inhibitory diameter,Escherichia coli [2],Not toxic
same,Inhibitory diameter,Escherichia coli [3],Not toxic
CN(O)C(=O)CCCCCn1c(=O)[nH]c(=O)n(CCCCCC(=O)N(C)O)c1=O,Inhibitory diameter,Escherichia coli [4],Not toxic
same,Inhibitory diameter,Escherichia coli [5],Not toxic
same,Inhibitory diameter,Escherichia coli [2],Not toxic
same,Inhibitory diameter,Escherichia coli [6],Not toxic
same,Inhibitory diameter,Escherichia coli [3],Not toxic
FERRICHROME,Inhibitory diameter,Escherichia coli [7],Not toxic
same,Inhibitory diameter,Escherichia coli [8],Not toxic
same,Inhibitory diameter,Escherichia coli [9],Not toxic
same,Inhibitory diameter,Escherichia coli [10],Not toxic
CN(O)C(=O)CCCCCn1c(=O)n(CCCCCC(=O)N(C)O)c(=O)n(CCCCCC(=O)N(C)O)c1=O,Inhibitory diameter,Escherichia coli [4],Not toxic
same,Inhibitory diameter,Escherichia coli [5],Not toxic
same,Inhibitory diameter,Escherichia coli [2],Not toxic
same,Inhibitory diameter,Escherichia coli [3],Not toxic
CC(=O)N(O)CCC[C@@H]1NC(=O)[C@H](CCCN(O)C(C)=O)NC1=O,Inhibitory diameter,Escherichia coli [7],Not toxic
same,Inhibitory diameter,Escherichia coli [9],Not toxic
same,Inhibitory diameter,Escherichia coli [10],Not toxic
CC(=O)N(O)CCCCCn1c(=O)n(CCCCCN(O)C(C)=O)c(=O)n(CCCCCN(O)C(C)=O)c1=O,Inhibitory diameter,Escherichia coli [2],Not toxic
same,Inhibitory diameter,Escherichia coli [3],Not toxic
CC(=O)N(O)CCCCn1c(=O)n(CCCCN(O)C(C)=O)c(=O)n(CCCCN(O)C(C)=O)c1=O,Inhibitory diameter,Escherichia coli [2],Not toxic
